The Deep4Chem optical property database

Assay: solvent given as SMILES

Which emission maximum (in CO) does the source give for `N[C@@H](Cn1nnc2cc(-c3ccc(N4CCOCC4)cc3)ccc21)C(=O)O` here?
The emission maximum was 384 nm.

For `COC(=O)CC1(C(=O)OC)Oc2c(c(C(C)=O)c3c(c2C(C)=O)OCO3)O1`, which emission maximum (in CC#N) is on record?
Its emission maximum is 532 nm.

For `Cc1ccccc1-c1c2ccc(=[N+]3CCN(C(=O)OC(C)(C)C)CC3)cc-2oc2cc(N3CCN(C(=O)OC(C)(C)C)CC3)ccc12`, which emission maximum (in CCO) is on record?
The emission maximum was 580 nm.

And the emission maximum (in ClCCl)?
The emission maximum was 577 nm.

For `CCC1(CC)c2cc(B(c3c(C)cc(C)cc3C)c3c(C)cc(C)cc3C)ccc2-c2ccc(N(c3ccccc3)c3ccccc3)cc21`, which emission maximum (in C1CCOC1) is on record?
The emission maximum was 482 nm.

What about the emission maximum (in CC#N) of the same compound?
The emission maximum was 531 nm.

And the emission maximum (in CC(C)=O)?
Its emission maximum is 499 nm.

And the emission maximum (in CCCCCC)?
Its emission maximum is 423 nm.

What about the emission maximum (in CN(C)C=O) of the same compound?
Its emission maximum is 532 nm.

And the emission maximum (in Cc1ccccc1)?
The emission maximum was 448 nm.

What about the emission maximum (in ClC(Cl)Cl) of the same compound?
The emission maximum was 461 nm.

Which emission maximum (in ClCCl) does the source give for `C(S/C=C/c1ccc(/C=C/SC=C2CCCCC2)cc1)=C1CCCCC1` here?
Its emission maximum is 421 nm.

With `CCOC(=O)CCCCCn1c2ccc(N)cc2c(=O)c2cc3c(cc21)c(=O)c1cc(N)ccc1n3CCCCCC(=O)OCC` as the compound, how does the emission maximum (in ClCCl) read?
Its emission maximum is 608 nm.

What does the source list for `Nc1cc(N)cc(-c2nc3ccccc3s2)c1`?
emission maximum (in C1CCCCC1): 410.5 nm; emission maximum (in C1COCCO1): 458 nm; emission maximum (in CC#N): 482 nm; emission maximum (in CC(C)O): 513 nm; emission maximum (in CCOC(C)=O): 468 nm; emission maximum (in CCOCC): 457 nm; emission maximum (in CO): 519 nm; emission maximum (in O): 541 nm

Which emission maximum (in Cc1ccccc1) does the source give for `c1ccc(-c2nnc(-c3ccc(N4c5ccccc5N(c5ccccc5)c5ccccc54)cc3)o2)cc1` here?
Its emission maximum is 577 nm.

What about the emission maximum (in c1cc(-n2c3ccccc3c3ccccc32)cc(-n2c3ccccc3c3ccccc32)c1) of the same compound?
Its emission maximum is 550 nm.

Which emission maximum (in CC#N) does the source give for `COc1ccc(N2C(=O)c3ccccc3NC2C(C)(C)C)cc1` (stereo unspecified) here?
Its emission maximum is 413 nm.

And the emission maximum (in CO)?
Its emission maximum is 444 nm.

And the emission maximum (in ClC(Cl)Cl)?
The emission maximum was 410 nm.

And the emission maximum (in c1ccccc1)?
Its emission maximum is 400 nm.

With `c1ccc(-c2nc(-c3ccccc3)nc(-c3cc(-n4c5ccccc5c5ncccc54)c(-n4c5ccccc5c5ccccc54)c(-n4c5ccccc5c5ncccc54)c3)n2)cc1` as the compound, how does the emission maximum (in CC#N) read?
The emission maximum was 525.35 nm.

And the emission maximum (in CCCCCC)?
Its emission maximum is 446.05 nm.

And the emission maximum (in Cc1ccccc1)?
Its emission maximum is 464.88 nm.

And the emission maximum (in ClCCl)?
Its emission maximum is 502.79 nm.

What about the emission maximum (in O=P(c1ccccc1)(c1ccccc1)c1ccccc1Oc1ccccc1P(=O)(c1ccccc1)c1ccccc1) of the same compound?
Its emission maximum is 455.49 nm.

What does the source list for `CC1(C)CC(=O)c2c(F)c(C(F)(F)F)c(F)c(F)c2N1`?
emission maximum (in CC#N): 419 nm; emission maximum (in CCO): 453 nm

Which emission maximum (in ClC(Cl)Cl) does the source give for `CCCCCCCCC1(CCCCCCCC)c2cc(-c3ccc(C(=O)OC)cc3)ccc2-c2ccc(-c3ccc(C(=O)OC)cc3)cc21` here?
Its emission maximum is 388 nm.

With `C(#Cc1ccc(N(c2ccc(C#Cc3ccc(-c4cc(-c5ccccc5)nc(-c5ccccc5)c4)cc3)cc2)c2ccc(C#Cc3ccc(-c4cc(-c5ccccc5)nc(-c5ccccc5)c4)cc3)cc2)cc1)c1ccc(-c2cc(-c3ccccc3)nc(-c3ccccc3)c2)cc1` as the compound, how does the emission maximum (in C1CCOC1) read?
Its emission maximum is 455 nm.

What about the emission maximum (in Cc1ccccc1) of the same compound?
The emission maximum was 426 nm.

With `COc1cc2c(cc1-c1ccncc1)Cc1c3c(c4c(c1-2)-c1cc(OC)c(-c2ccncc2)cc1C4)C(=O)N(CCC(C)C)C3=O` as the compound, how does the emission maximum (in C1CCOC1) read?
The emission maximum was 456 nm.

For `O=c1oc2ccc(Cl)cc2cc1-c1cc2cc(Cl)ccc2o1`, which emission maximum (in CC#N) is on record?
Its emission maximum is 431 nm.

What about the emission maximum (in CCOC(C)=O) of the same compound?
Its emission maximum is 429 nm.

And the emission maximum (in CS(C)=O)?
The emission maximum was 488 nm.

And the emission maximum (in Cc1ccccc1)?
Its emission maximum is 433 nm.

And the emission maximum (in O)?
The emission maximum was 473 nm.

With `COC(=O)C(NC(=O)OC(C)(C)C)c1ccc2oc(-c3ccc(C#N)cc3)nc2c1` (stereo unspecified) as the compound, how does the emission maximum (in CC1CCCCC1) read?
The emission maximum was 342 nm.

What about the emission maximum (in CC#N) of the same compound?
The emission maximum was 384 nm.

What about the emission maximum (in CO) of the same compound?
The emission maximum was 385 nm.

Which emission maximum (in ClC(Cl)Cl) does the source give for `C(=N\c1ccc(-c2cn3nc(-c4cccs4)sc3n2)cc1)/c1ccc(N(c2ccccc2)c2ccccc2)cc1` here?
The emission maximum was 552 nm.

Which emission maximum (in CCO) does the source give for `CC(C)(C)OC(=O)NCCCC(=O)OCc1ccc2c3cccc4cccc(c5cccc1c52)c43` here?
Its emission maximum is 446 nm.

Which results are given for `O=S(=O)(c1ccccc1)c1ccc(-c2ccc3c(c2)c2cc(-c4ccc(S(=O)(=O)c5ccccc5)cc4)ccc2n3-c2ccccc2)cc1`?
emission maximum (in CCCCCC): 377 nm; emission maximum (in CN(C)C=O): 431 nm; emission maximum (in CO): 434 nm; emission maximum (in Cc1ccccc1): 381 nm; emission maximum (in ClCCl): 395 nm

Which emission maximum (in ClC(Cl)Cl) does the source give for `CCCCCCCCCCCCc1sc(CCCCCC)c2c3cc(CCCCCC)sc3c3sc(CCCCCC)cc3c12` here?
The emission maximum was 423 nm.

What does the source list for `CC/[NH+]=c1\cc2oc3cc(NCCO)c4ccccc4c3nc-2cc1C`?
emission maximum (in CCO): 643 nm; emission maximum (in O): 651 nm
